Experimental data taken from patent EP0343398A2, “7-Substituted quinolone- and naphthyridinecarboxylic acid derivatives” (BAYER AG, priority 1988, dated 1989).
In brackets after ≈: the same amount, converted by molar mass.

Columns and labels:
Experiment in all cases: MIC determination (MHK-Werte), comparison with Ciprofloxacin
Format in all cases: cell-based
E.coli Neumann = details: for MIC: Escherichia coli
Staph. FK422 = tested on: Staph. FK422
Staph. 1756 = tested on: Staph. 1756
Staph. 133 = tested on: Staph. 133
Enteroc. 27101 = tested on: Enteroc. 27101
Enterco. 9790 = tested on: Enterco. 9790
Pseudo-monas Walter = tested on: Pseudo-monas Walter
Pseudo-monas Ellsworth = tested on: Pseudo-monas Ellsworth

Q: Which MHK-Werte (E.coli Neumann) does the source give for `CCOC(=O)c1cn(C2CC2)c2cc(-c3ccccc3)c(F)cc2c1=O` [Beispiel 1, 1-Cyclopropyl-6-fluor-1,4-dihydro-4-oxo-7-phenyl-3-chinolincarbonsäure-ethylester] here?
A: Its MHK-Werte is 0,062 µg/ml.

Q: What about the MHK-Werte (Staph. FK422) of the same compound?
A: The MHK-Werte was ≤0,015 µg/ml.

Q: And the MHK-Werte (Staph. 1756)?
A: The MHK-Werte was 0,062 µg/ml.

Q: And the MHK-Werte (Staph. 133)?
A: Its MHK-Werte is 0,062 µg/ml.

Q: What about the MHK-Werte (Enteroc. 27101) of the same compound?
A: The MHK-Werte was 0,062 µg/ml.

Q: What about the MHK-Werte (Enterco. 9790) of the same compound?
A: Its MHK-Werte is 0,125 µg/ml.

Q: What about the MHK-Werte (Pseudo-monas Walter) of the same compound?
A: Its MHK-Werte is 0,5 µg/ml.

Q: What about the MHK-Werte (Pseudo-monas Ellsworth) of the same compound?
A: Its MHK-Werte is 0,25 µg/ml.

Q: Which MIC (E.coli Neumann) does the source give for `O=C(O)c1cn(C2CC2)c2cc(-c3ccc4ccccc4c3)c(F)cc2c1=O` [Beispiel 14] here?
A: The MIC was 0.062 µg/mL (≈ 0.166 µM).

Q: What about the MIC (Pseudo-monas Walter) of the same compound?
A: The MIC was 1 µg/mL (≈ 2.68 µM).

Q: What about the MIC (Pseudo-monas Ellsworth) of the same compound?
A: Its MIC is 0.25 µg/mL (≈ 0.67 µM).

Q: Which results are given for `O=C(O)c1cn(C2CC2)c2cc(-c3cccnc3)c(F)cc2c1=O` [Beispiel 16]?
A: MIC (E.coli Neumann): ≤ 0.015 µg/mL; MIC (Pseudo-monas Walter): 0.5 µg/mL (≈ 1.54 µM)

Q: `NCc1ccc(-c2cc3c(cc2F)c(=O)c(C(=O)O)cn3C2CC2)cc1` [Beispiel 20, 7-(4-Aminomethylphenyl)-1-cyclopropyl-6-fluor-1,4-dihydro-4-oxo-3-chinolincarbonsäure] was tested. Which MIC (E.coli Neumann) did it give?
A: Its MIC is at most 0.015 µg/mL.

Q: Which MIC (E.coli Neumann) does the source give for `O=C(O)c1cn(C2CC2)c2cc(N3CCNCC3)c(F)cc2c1=O` [Ciprofloxacin, reference compound] here?
A: The MIC was at most 0.015 µg/mL.

Q: What about the MIC (Staph. FK422) of the same compound?
A: The MIC was 0.25 µg/mL (≈ 0.754 µM).

Q: And the MIC (Staph. 1756)?
A: Its MIC is 0.25 µg/mL (≈ 0.754 µM).

Q: And the MIC (Staph. 133)?
A: The MIC was 0.25 µg/mL (≈ 0.754 µM).

Q: What about the MIC (Enteroc. 27101) of the same compound?
A: Its MIC is 0.25 µg/mL (≈ 0.754 µM).

Q: And the MIC (Enterco. 9790)?
A: Its MIC is 0.25 µg/mL (≈ 0.754 µM).

Q: What about the MIC (Pseudo-monas Walter) of the same compound?
A: The MIC was 0.25 µg/mL (≈ 0.754 µM).
